Data reported in article PMC11336141.
Ends that are not written are not given here.

Columns and labels:
perfused rat pancreas = assay: Rat pancreas perfusion, glucagon output; design: species or system rat (Wistar); conditions: bolus 10 mM L-arginine at end of experiment
Method: Non-fasted rats were anesthetized by a subcutaneous injection of a balanced mix of hypnorm and midazolam (0.3 mL/100 g body weight). Rats were placed on a heated operating table (37 °C) and the abdomen were opened. Blood vessels were tied off before removing the large and small intestines, the stomach, and the spleen. Then, the kidneys were ligated. […] The perfusion buffer was a modified Krebs-Ringer bicarbonate buffer with 5% (w/v) dextran T-70 (Pharmacosmos, Holbaek, Denmark), 0.1% (w/v) BSA (fraction V), 3.5 mM glucose and 3 mM vamin (Fresenius Kabi, Copenhagen, Denmark), pH adjusted to 7.4. […] Once perfusion of the pancreas was established, a catheter was inserted in the vena portae to collect the venous effluent and the rat was sacrificed by perforation of the diaphragm. After a 30-minute equilibration period, samples were collected every minute for the duration of the protocol. […] 10 mM L-Arginine was used as a positive control. Collected samples were immediately transferred on ice and stored at −20 °C until hormone analysis. Glucagon, insulin, and somatostatin concentrations in venous effluents were quantified by use of validated in-house radioimmunoassays (RIA) as previously described[36] (see below). Statistical analysis were performed where appropriate using one-way analysis of variance (ANOVA) with Dunnett’s post-test. Statistical significance was taken as p < 0.05.
Glucagon concentration in perfusion samples were measured by a validated in-house RIAs using the 4305 antibody, which reacts with the C-terminal epitope of glucagon[36] and no other cleavage products of pro-glucagon. Insulin concentrations were measured with the 2006 antibody, which measures all isoforms of rat insulin. […] Assay sensitivity was <1 pmol/L ( < 5 pmol/L for insulin detection), allowing reliable measurements of increments of at least 25 fmol/min.
Data analysis were performed in GraphPad Prism (v.9.4.1). Statistical analysis were performed using two-way repeated measure analysis of variance (ANOVA) with Šidák test for isolated islets glucagon secretion and one-way repeated measure ANOVA with Dunnett's test for rat pancreas perfusion experiments. Statistical significance was taken as p < 0.05.

human SSTR3 = molecular target: T1, human SSTR3 (Homo sapiens, UniProt P32745); assay: PRESTO-Tango β-arrestin recruitment assay, hSSTR3; format: cell-based
T1 construct: Tango cassette (PRESTO-Tango template of Kroeze et al. 2015); Bryan Roth (Addgene) Addgene kit # 1000000068; host or cells: HTLA cells
T1 sequence (P32745 whole entry): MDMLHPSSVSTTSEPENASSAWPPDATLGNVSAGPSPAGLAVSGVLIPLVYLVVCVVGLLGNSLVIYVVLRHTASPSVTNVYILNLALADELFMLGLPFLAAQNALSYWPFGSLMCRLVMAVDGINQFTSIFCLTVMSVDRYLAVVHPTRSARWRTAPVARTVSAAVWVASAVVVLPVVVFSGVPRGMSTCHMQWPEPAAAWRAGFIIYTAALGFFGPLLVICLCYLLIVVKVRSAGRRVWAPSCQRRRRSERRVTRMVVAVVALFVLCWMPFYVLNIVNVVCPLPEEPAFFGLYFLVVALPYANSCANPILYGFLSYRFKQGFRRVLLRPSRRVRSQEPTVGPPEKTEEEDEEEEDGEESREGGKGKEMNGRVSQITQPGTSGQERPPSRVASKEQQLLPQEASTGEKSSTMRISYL
Text: HTLA cells were given by Prof.
The assay was done as described in ref. [12].

human SSTR2 (Gi1) = molecular target: T2, human SSTR2 (Gi1) (Homo sapiens, UniProt P30874); assay: G protein activation (BRET dissociation) assay, Gi1 at hSSTR2; format: cell-based;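 note: percent of the maximal response to the reference somatostatin agonist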
T2 construct: host or cells: HEK293T cells
T2 sequence (P30874 whole entry): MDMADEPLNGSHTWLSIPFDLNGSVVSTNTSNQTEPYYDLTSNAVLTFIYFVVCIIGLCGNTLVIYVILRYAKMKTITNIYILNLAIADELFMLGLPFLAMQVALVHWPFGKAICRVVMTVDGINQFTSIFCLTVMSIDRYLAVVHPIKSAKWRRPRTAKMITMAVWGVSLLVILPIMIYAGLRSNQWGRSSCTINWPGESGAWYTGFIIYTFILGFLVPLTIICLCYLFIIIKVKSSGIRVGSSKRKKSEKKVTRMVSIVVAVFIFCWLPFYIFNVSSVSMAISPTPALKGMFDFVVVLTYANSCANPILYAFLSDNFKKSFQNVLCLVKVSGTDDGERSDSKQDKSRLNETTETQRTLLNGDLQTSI
Method: (§1) HEK293T cells were seeded onto 6-well plates at a density of 750,000 cells/well. […] 16 to 24 hours post-transfection, HEK293T cells were seeded onto white 96 well plate (PerkinElmer) coated with poly-L-lysine (PLL) at a density of 40,000 cells/well and were allowed to grow overnight. On the day of assay, cells were washed once with phosphate-based saline (PBS) and 80 µL of assay buffer which composed of PBS with 0.5 mM MgCl2 and 0.1% glucose, pH 7.4, were added onto each well. 10 µL of Nluc luciferase substrate furimazine (Promega) were added onto each well and incubated for 3 minutes.
(§2) The net BRET ratio was determined by subtracting the BRET ratio of drugs with the BRET ratio of vehicle control. Net BRET ratio over time was then plotted using GraphPad Prism (v.9.4.1), and the area-under-curve of net BRET ratio over time course for each ligand concentration tested were then determined and plotted against log(concentration) of drugs tested. […] Concentration response curves were fitted with a 4-parameter logistic Eq. (1) using GraphPad Prism (v.9.4.1):1 Y=Emin+(Emax−Emin)/1+10^logEC50−X×Hillslope

human SSTR2 (Gi2) = molecular target: T3, human SSTR2 (Gi2) (Homo sapiens, UniProt P30874); assay: G protein activation (BRET dissociation) assay, Gi2 at hSSTR2; format: cell-based;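 note: percent of the maximal response to the reference somatostatin agonist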
T3 construct: host or cells: HEK293T cells
T3 sequence (P30874 whole entry): as above
Method: as §1, §2

human SSTR2 (Gi3) = molecular target: T4, human SSTR2 (Gi3) (Homo sapiens, UniProt P30874); assay: G protein activation (BRET dissociation) assay, Gi3 at hSSTR2; format: cell-based;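 note: percent of the maximal response to the reference somatostatin agonist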
T4 construct: host or cells: HEK293T cells
T4 sequence (P30874 whole entry): as above
Method: as §1, §2

human SSTR2 (GoB) = molecular target: T5, human SSTR2 (GoB) (Homo sapiens, UniProt P30874); assay: G protein activation (BRET dissociation) assay, GoB at hSSTR2; format: cell-based;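 note: percent of the maximal response to the reference somatostatin agonist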
T5 construct: host or cells: HEK293T cells
T5 sequence (P30874 whole entry): as above
Method: as §1, §2

human SSTR2 = human SSTR2 (Homo sapiens, UniProt P30874); assay: PRESTO-Tango β-arrestin recruitment assay, hSSTR2; conditions: read-out: Emax ± S.E.M., Table S1; % of maximal response relative to SS-14
Chain of human SSTR2 (P30874 whole entry): as above
Method: HTLA cells were given by Prof. Bryan Roth (University of North Carolina, Chapel Hill, US) and were maintained in Dulbecco’s modified Eagle’s medium (DMEM) supplemented with 10% Fetal Bovine Serum (FBS) (Biowest) and 100 U/mL penicillin and 100 µg/mL streptomycin at 37 °C in a humidified incubator supplemented with 5% CO2. Constant selective pressure for tTA-dependent luciferase reporter and a β-arrestin 2 tobacco etch virus protease fusion gene were maintained with the addition of 100 µg/mL hygromycin B and 2 µg/ml puromycin (Tango growth medium).
Briefly, HTLA cells (1 million cells/well) were seeded in 6-well plates in Tango growth medium, and incubated overnight. On day 2, medium was changed to Tango growth medium without hygromycin B and puromycin. Cells were then transfected using Polyfect (Qiagen) according to manufacturer’s protocol. On day 3, 15,000 cells in 40 µL DMEM supplemented with 1% dialyzed FBS (Tango assay medium) per well were seeded in poly-D-lysine-coated white clear-bottom 384 well plates (Corning) and incubated overnight. On day 4, the Tango assay medium was changed and 10 µL of each of the peptide was added at 5x final concentration. The peptides were resuspended in HBSS with 20 mM HEPES, 1 mM of CaCl2, 1 mM of MgCl2, pH adjusted to 7.4 with 1 M NaOH (Tango assay buffer), which was supplemented with 0.1% BSA (Tango ligand buffer). After overnight incubation, on day 5, the medium and the compounds were removed from the cells and 20 µL of 1:20 dilution of BrightGlo (Promega) in Tango assay buffer supplemented with 0.01% pluronic F68 was added to the cells. Plates were incubated for 20 minutes in the dark at room temperature. Luminescence was measured on a Molecular Devices SpectraMax iD5 (Molecular Devices) with each well integrated for 1 second.

human SSTR2 (GoA) = human SSTR2 (GoA) (Homo sapiens, UniProt P30874); assay: G protein activation (BRET dissociation) assay, GoA at hSSTR2; conditions: read-out: Emax ± S.E.M.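 Note: percent of the maximal response to the reference somatostatin agonist.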
Chain of human SSTR2 (GoA) (P30874 whole entry): as above
Method: as §1, §2

[1] = system: mock (pcDNA) transfected HEK293T cells; assay: GoA dissociation in mock (pcDNA) transfected HEK293T cells; format: cell-based; conditions: Fig. S6B
Method: The following protocol was adopted from Masuho et al., 2015[33]. HEK293T cells were seeded onto 6-well plates at a density of 750,000 cells/well. […] 16 to 24 hours post-transfection, HEK293T cells were seeded onto white 96 well plate (PerkinElmer) coated with poly-L-lysine (PLL) at a density of 40,000 cells/well and were allowed to grow overnight. On the day of assay, cells were washed once with phosphate-based saline (PBS) and 80 µL of assay buffer which composed of PBS with 0.5 mM MgCl2 and 0.1% glucose, pH 7.4, were added onto each well. 10 µL of Nluc luciferase substrate furimazine (Promega) were added onto each well and incubated for 3 minutes.
Crude C. geographus venom was subjected to reversed-phase high performance liquid chromatography (RP-HPLC). Pools consisting of 5 adjacent fractions were then tested for their ability to induce GoA dissociation at the hSSTR2. […] Error bars represent means ± S.E.M. of only one technical experiment in duplicate.
Error bars represent means ± S.E.M. of only one technical experiment in duplicate.

[2] = molecular target: zebrafish sstr2a, Tango construct (zebrafish (Danio rerio)) (UniProt E7FDL0)
[3] = molecular target: zebrafish sstr2b, Tango construct (zebrafish (Danio rerio))
plasma glucose = conditions: compared with GLP-1; cited from earlier work
Text: Another example of a doppelganger peptide with drug-like properties that targets glucose homeostasis is exendin-4, a glucagon-like peptide-1 (GLP-1) peptide derived from the salivary gland of the Gila monster, Heloderma suspectum. […] Following successful clinical trials, exendin-4 (exenatide) entered the market in 2005 as a first-in-class incretin-mimetic for the treatment of type 2 diabetes (T2D). Since then, several other GLP-1 analogs have been devel ...

Compound: N=C(N)NCCC[C@H](N)C(=O)O [L-arginine, reference compound]
- effect on glucagon levels (positive control) (perfused rat pancreas): revert glucagon levels

Compound: C[C@@H](O)[C@@H]1NC(=O)[C@H](CCCCN)NC(=O)[C@@H](Cc2c[nH]c3ccccc23)NC(=O)[C@H](Cc2ccccc2)NC(=O)[C@@H](NC(=O)[C@H](N)Cc2ccccc2)CSSC[C@@H](C(=O)N[C@H](CO)[C@@H](C)O)NC1=O [Octreotide, octreotide, reference compound]
- Emax (human SSTR3): 108 ± 13.4%
- Emax (human SSTR2 (Gi1)): 84.2 ± 4.44%
- Emax (human SSTR2 (Gi2)): 64 ± 2.97%
- Emax (human SSTR2 (Gi3)): 77.5 ± 3.67%
- Emax (human SSTR2 (GoB)): 101 ± 2.64%
- Emax (human SSTR2): 94 ± 1.4%
- Emax (human SSTR2 (GoA)): 96.2 ± 4.77%

Compound: SST-14 (AGCKNFFWKTFTSC; not fully specified (bridges); ends and bridges not checked; UniProt P61278 103-116, looked up)
- pcDNA/GoA response, Mean ([1]; at pEC20, data row 1): 0.005611
- pcDNA/GoA response, Mean ([1]; at pEC20, data row 2): 0.02323
- pcDNA/GoA response, Mean ([1]; at pEC20, data row 3): 0.002971
- pcDNA/GoA response, Mean ([1]; at pEC50, data row 1): 0
- pcDNA/GoA response, Mean ([1]; at pEC50, data row 2): 0.0008161
- pcDNA/GoA response, Mean ([1]; at pEC50, data row 3): 0

Compound: Somatostatin-14 (from UniProt P61278 103-116) (peptide)
- EC50, PRESTO-Tango β-arrestin recruitment assay [2]: 0.0286 µM
- EC50, PRESTO-Tango β-arrestin recruitment assay [3]: 0.132 µM

Compound: exendin-4
- in vivo half-life in words (plasma glucose): significantly longer in vivo half-life than GLP-1
- potency in lowering plasma glucose in words (plasma glucose): much greater potency in lowering plasma glucose
